Assay results: patent US20060229250A1, “Ghrelin associated peptide and its uses” (priority 2005, published 2006)
Ends that are not written are not given here. * marks the point of attachment. Octanoyl = CCCCCCCC(=O)*

Key:
[1] = tested on: plasma membrane preparations of rat jejunum; assay: I125-obestatin radioligand binding to jejunal membranes; settings: for competition for labeled obestatin binding: displacement of iodinated wild type obestatin, rat jejunal membranes
Experimental: Iodination of obestatin was performed using the lodogen (Pierce, Upland, Ind.) procedure. Mixtures of the peptide (20 μg) and 1 mCi [125I] Nal were transferred to precoated lodogen vials and incubated for 4 min. The 125I-labeled peptide was applied to a Sep-Pak C18 cartridge (Waters) before elution with 60% acetonitrile/0.1% TFA. For radioligand binding assays, rat jejunum or other tissues were washed with buffer A (20 mM Hepes, 5 mM EDTA, 1 mM dithiothreitol (DTT), 10 μM amidinophenylmethanesulfonyl fluoride, 5 mg/L leupeptin, 100 mM KCl, pH 7.5), cut into small pieces, and homogenized using a motorized homogenizer. The homogenates were centrifuged at 1,000 g for 5 min. and the supernatant was centrifuged at 300,000 g for 1 hour at 2° C. The pellets (crude membrane fractions) were resuspended with buffer A without KCl, quickly frozen under liquid nitrogen, and stored at −80° C. until use.
After incubation, the tubes were centrifuged for 10 min. at 10,000 g, and pellets were washed twice in ice-cold PBS before quantitation of radioactivity with a γ-spectrophotometer. Specific binding was calculated by subtracting nonspecific binding from total binding.

[2] = Body weight in adult male rats under long-term peptide treatment; format: in vivo; settings: 1 μmol per kg body weight, three times daily
Source text: The observed inhibition of jejunal contraction may trigger an afferent vagus signal to induce a central satiety response.

jejunum muscle strips = assay: Isometric force measurement of jejunal muscle strips; settings: in vitro; for contractile activity of jejunum muscle strips: isometric force, percent of maximal acetylcholine contraction
Experimental: Isometric force measurements. Strips of jejunal muscle (˜1 cm in length) were cut along the longitudinal axis of the circular muscle layer and the mucosa was removed to minimize contamination with endogenous peptides. Muscle strips were mounted to a TIS8105R (Kent Scientific Corporation, Torrington, Conn.) isometric strain gauge and immersed in a 5 ml organ bath maintained at 37° C. with oxygenated KRB [Krebs-Ringer phosphate buffer, consisting of 50 mM HEPES, 100 mM NaCl, 5 mM KCl, and 1 mM each of MgCl2, NaH2PO4, and CaCl2] as previously described. A resting force of 1.0 g was applied to intestinal muscles and a 1.5 hours equilibration period was allowed before testing of different peptides during a 5 min. period. After each test, muscle strips were washed with fresh KRB for 20 min. to allow full recovery of basal contractile activities. Maximal contraction was evaluated at the beginning and end of each experiment after treatment with 10 μM of acetylcholine chloride. Contractility data were digitized and stored in a computer using DAS Wizard™ (Measurement Computing, Middleboro, Mass.). The magnitude of contractile strength is expressed as percent of maximal contraction induced by acetylcholine.

[3] = tested on: cultured rat pituitary cells; assay: Growth hormone secretion by cultured anterior pituitary cells; format: cell-based; settings: 1 hour incubation
Experimental: Pituitary cell cultures. Anterior pituitaries were removed from adult male Sprague-Dawley rats and dispersed with 0.3% collagenase, 0.1% hyaluronidase and DNase I (10 μg/ml). The cell suspension was centrifuged at 300 g for 5 min. and cells were washed twice before incubation in Dulbecco minimal essential medium (DMEM) containing 0.1% bovine serum albumin (BSA), penicillin (100 units/ml), streptomycin (100 μg/ml), fungizone (2.5 μg/ml), and 10% fetal calf serum. Cells were seeded onto poly-lysine-coated 24-well plates at a density of ˜3×10^5 cells/well. Cultures were kept in a humidified atmosphere of 5% CO2 and 95% air at 37° C. […] Media was removed for growth hormone measurement by an enzyme-linked immunosorbent assay.

[4] = Food intake in mice after peptide injection; format: in vivo
Experimental: (§1) Analysis of gastrointestinal functions. Eight-week-old C57BL6 male mice were housed individually in a regulated environment. Before intraperitoneal treatment with different peptides, mice were deprived of food for 16 hours with free access to water. Food intake was measured by placing preweighed pellets in the cage and weighing uneaten pellets at 5 hours after treatment. For intracerebroventricular injection of different peptides, mice were deprived of food for 16 hours. Free-hand injections were performed at 2 hours after light onset and food intake monitored for 5 hours. To estimate gastric emptying responses, mice deprived of food for 16 hours were given food pellets for 90 min. before injection of different hormones or saline. After treatment, mice were deprived of food again and sacrificed 0.5, 1, and 2 hours later. The stomach was excised at the pylorus and cardia before weighing. Gastric emptying was calculated by subtracting the stomach weight of treated mice from those sacrificed at the time of peptide injection.

Gastric emptying in mice = format: in vivo; settings: 1 μmol per kg body weight, 0.5, 1 and 2 hours after treatment
Experimental: as §1

[5] = intraperitoneal injection, adult male mice deprived of food for 16 hours, cumulative intake up to 5 hours
[6] = intracerebroventricular treatment, 8 nmol per kg body weight, mice, monitored for 5 hours

| Substance | competition for labeled obestatin binding [1] | body weight [2] | contractile activity of jejunum muscle strips (jejunum muscle strips) | growth hormone secretion [3] | food intake [4, 5] | food intake [4, 6] | further results |
| --- | --- | --- | --- | --- | --- | --- | --- |
| FNAPFDVGIKLSGVLYQQHSQAL-NH2 [L15-obestatin] | potency similar to the wild type obestatin | – | – | – | – | – | – |
| ghrelin: peptide of 28 amino acids, serine-3 n-octanoylated; endogenous GHSR ligand; purchased from Phoenix Pharmaceuticals (GSS(Octanoyl)FLSPEHQRVQQRKESKKPPAKLQPR; UniProt Q9UBU3 24-51, looked up) [reference compound] | does not compete | increased body weight | stimulatory effect | stimulated growth hormone secretion | – | – | – |
| FNAPFDVGIKLSGVQYQQHSQALG (human) [NA-obestatin] | – | – | – | – | less effective | – | – |
| MTII [reference compound] | – | – | – | – | – | anorexigenic effect | – |
| FNAPFDVGIKLSGVQYQQHSQAL-NH2 [obestatin] | – | suppressed body-weight gain | decreased the contractile activity | did not increase GH secretion | suppressed food intake in a time- and dose-dependent manner | decreased food intake | gastric emptying activity (Gastric emptying in mice): sustained suppression of gastric emptying activity; effect on ghrelin-stimulated contractile activity of jejunum muscle strips (jejunum muscle strips; together with ghrelin): antagonized the stimulatory effect of ghrelin |
| I125-obestatin: obestatin iodinated with [125I] NaI by the Iodogen procedure | – | – | – | – | – | – | specific binding of I125-obestatin ([1]; saturation binding, crude plasma membrane fractions of rat jejunum): High affinity binding |
